Where “and” joins values, the source holds several entries; their conditions need not be identical. Equal values may be shown once.
How the values were obtained:
[1] = tested on: LHGFR0N3C; experiment: Specificity of purified LHGFR0N3C, emission ratio with 240 μM compounds; assay type: binding, Pseudomonas putida W619; conditions: 240 μM compound
Experimental: (§1) Purified L-2-HG biosensors and different compounds were diluted by 50 mM Tris-HCl buffer (pH 7.4), mixed together in a black 96-well plate at a volume ratio of 3:1, and the fluorescence intensities were measured using an EnSight microplate reader (PerkinElmer, USA) with excitation at 430 nm, emission at 485 nm (mTFP) and 528 nm (Venus). […] The [L-2-HG], Kd, and p refer to the L-2-HG concentration, apparent dissociation constant, and Hill slope, respectively. Emission spectra were recorded at 430 nm excitation, in steps of 2 nm. Excitation spectra were recorded using emission at 550 nm, excitation from 380 to 535 nm in steps of 2 nm.

[2] = tested on: LHGFR0N3C; experiment: Influence of other compounds on the response of purified LHGFR0N3C to L-2-HG; assay type: binding, Pseudomonas putida W619; conditions: Suppl. Fig. 9a, three replicates
Experimental: as §1

[3] = tested on: LHGFR0N7C; experiment: Specificity of purified LHGFR0N7C, emission ratio with 240 μM compounds; assay type: binding, Pseudomonas putida W619; conditions: 240 μM compound
Experimental: as §1

[4] = tested on: LHGFR0N7C; experiment: Influence of other compounds on the response of purified LHGFR0N7C to L-2-HG; assay type: binding, Pseudomonas putida W619; conditions: Suppl. Fig. 9b, three replicates
Experimental: as §1

[5] = tested on: LhgR; experiment: EMSA, effect of compounds on LhgR binding to the lhgO promoter region F1; set-up: species or system Pseudomonas putida W619; conditions: 50 mM compound, 10 nM F1, 60 nM LhgR
Experimental: Electrophoretic mobility shift assays (EMSAs) were carried out using the DNA fragment (F1 or F2) and purified LhgR. The DNA fragments were first amplified by primer pairs F1-F/F1-R and F2-F/F2-R, respectively. Then, either fragment at a concentration of 10 nM DNA was incubated with LhgR (0–160 nM) in 20 μL EMSA binding buffer (10 mM Tris-HCl [pH 7.4], 50 mM KCl, 0.5 mM EDTA, 10% [vol/vol] glycerol, and 1 mM dithiothreitol [DTT]). The binding reactions were carried out at 30 °C for 30 min. Electrophoresis was performed on 6% native polyacrylamide gels at 4 °C and 170 V (constant voltage) for about 45 min, followed by staining with SYBR green I (TaKaRa, China) and photographing. Analysis of the interaction between lhgO promoter region (F1) and LHGFR was performed using the same procedure.
To characterize the effector of LhgR, purified LhgR was first incubated with L-lysine, 5-aminovalerate, glutarate, L-2-HG, D-2-HG, 2-KG, or succinate at 30 °C for 15 min, followed by incubation with the added DNA fragments at 30 °C for 30 min. The mixtures were subsequently subjected to electrophoresis.

[6] = L-2-HG alone or with the compound

SMILES | Emission ratio [1] | Induction of emission ratio changes [1] | Emission ratio [2, 6] | Emission ratio [3] | Induction of emission ratio changes [3] | Emission ratio [4, 6] | Effect on LhgR binding to the lhgO promoter region F1 [5] | Emission ratio ([2]; 50 μM ATP) | Emission ratio ([2]; 100 μM ATP) | Emission ratio ([2]; 500 μM ATP) | Emission ratio ([2]; 1 mM ATP) | Emission ratio ([2]; 5 mM ATP) | Emission ratio ([4]; 50 μM ATP) | Emission ratio ([4]; 100 μM ATP) | Emission ratio ([4]; 500 μM ATP) | Emission ratio ([4]; 1 mM ATP) | Emission ratio ([4]; 5 mM ATP)
O=C(O)/C=C/C(=O)O [Fumarate] | 1.378 and 1.374 and 1.399 | None | 1.9538 and 2.042 and 2.049 | 1.695 and 1.71 and 1.714 | None | 2.613 and 2.5931 and 2.59 | – | – | – | – | – | – | – | – | – | – | –
NCCCCC(=O)O [5-Aminovalerate, 5-aminovalerate] | 1.403 and 1.397 and 1.408 | None | 2.084 and 2.019 and 2.1 | 1.703 and 1.69 and 1.7015 | None | 2.625 and 2.696 and 2.709 | observed only in the presence of L-2-HG | – | – | – | – | – | – | – | – | – | –
CC(=O)C(=O)O [Pyruvate, pyruvate] | 1.366 and 1.361 and 1.386 | None | 2.0125 and 2.04 and 2.083 | 1.667 and 1.6731 and 1.709 | None | 2.56 and 2.596 and 2.595 | – | – | – | – | – | – | – | – | – | – | –
O=C(O)/C=C(/CC(=O)O)C(=O)O [Cis-aconitate, cis-aconitate] | 1.358 and 1.383 and 1.3936 | None | 2.04 and 2.059 and 2.056 | 1.7035 and 1.722 and 1.738 | None | 2.594 and 2.591 and 2.61 | – | – | – | – | – | – | – | – | – | – | –
Nc1ncnc2c1ncn2[C@@H]1O[C@H](COP(=O)(O)OP(=O)(O)OP(=O)(O)O)[C@@H](O)[C@H]1O [ATP] | – | – | – | – | – | – | – | 2.0763 and 2.03 and 2.053 | 2.022 and 2.017 and 2.045 | 2.063 (2×) and 2.059 | 2.142 and 2.082 and 2.1362 | 2.1045 and 2.1074 and 2.154 | 2.546 and 2.581 and 2.59 | 2.59 and 2.574 and 2.618 | 2.6191 and 2.584 and 2.589 | 2.6148 and 2.611 (2×) | 2.6574 and 2.624 and 2.63
C[C@@H](O)C(=O)O [D-Lactate, D-lactate] | 1.395 | None | 2.084 and 2.089 and 2.108 | 1.7153 and 1.693 and 1.686 | None | 2.595 and 2.609 and 2.633 | – | – | – | – | – | – | – | – | – | – | –

Source: paper PMC8206213, “An L-2-hydroxyglutarate biosensor based on specific transcriptional regulator LhgR” (Nature Communications, 2021)
